{"source": "ChEMBL document CHEMBL5532761", "about": "“Rosavin improves insulin resistance and alleviates hepatic and kidney damage via modulating the cGAS-STING pathway and autophagy signaling in HFD/STZ-induced T2DM animals” (2024)", "key": {"Rattus norvegicus [1]": {"test_system": "Rattus norvegicus", "assay": "(§1) Antidiabetic activity in high fat diet-STZ induced diabetic Wistar rat model assessed as mean area percentage of TNF alpha in liver at 20 mg/kg, ip pretreated with high fat diet for 4 weeks followed by 8 hrs fasting after STZ administration and measured after 4 weeks of compound treatment by immunohistochemistry based microscopic analysis (reference value: 18.28 +/- 1.31 %)", "format": "functional"}, "Rattus norvegicus [2]": {"test_system": "Rattus norvegicus", "assay": "(§2) Antidiabetic activity in high fat diet-STZ induced diabetic Wistar rat model assessed as increase in AC074117.2 lncRNA expression in kidney at 10 to 30 mg/kg, ip pretreated with high fat diet for 4 weeks followed by 8 hrs fasting after STZ administration and measured 4 weeks after compound treatment by RT-qPCR analysis", "format": "functional, organism-based", "conditions": "dose 10-30 mg/kg"}, "Rattus norvegicus [3]": {"test_system": "Rattus norvegicus", "assay": "(§3) Antidiabetic activity in high fat diet-STZ induced diabetic Wistar rat model assessed as protection against periportal mononuclear inflammatory cell infiltration in liver at 10 mg/kg, ip pretreated with high fat diet for 4 weeks followed by 8 hrs fasting after STZ administration and measured 4 weeks after compound treatment by hematoxylin and eosin staining based microscopic analysis", "format": "functional, organism-based"}, "Rattus norvegicus [4]": {"test_system": "Rattus norvegicus", "assay": "(§4) Antidiabetic activity in high fat diet-STZ induced diabetic Wistar rat model assessed as LDL-cholesterol level at 30 mg/kg, ip pretreated with high fat diet for 4 weeks followed by 8 hrs fasting after STZ administration and measured 4 weeks after compound treatment (reference value: 6.54 +/- 0.918 mmol/L)", "format": "functional"}, "Rattus norvegicus [5]": {"test_system": "Rattus norvegicus", "assay": "as §4, with “triglyceride” for “LDL-cholesterol”, “10” for “30”, “17.05” for “6.54”, “0.803” for “0.918”", "format": "functional"}, "Rattus norvegicus [6]": {"test_system": "Rattus norvegicus", "assay": "(§5) Antidiabetic activity in ip dosed high fat diet-STZ induced diabetic Wistar rat model assessed as reduction of ZBP1 mRNA expression in kidney pretreated with high fat diet for 4 weeks followed by 8 hrs fasting after STZ administration and measured 4 weeks after compound treatment by RT-qPCR analysis", "format": "functional, organism-based", "conditions": "dose 10-30 mg/kg"}, "Rattus norvegicus [7]": {"test_system": "Rattus norvegicus", "assay": "as §3, with “reduction” for “protection against periportal mononuclear inflammatory cell infiltration”, “tubular degenerative changes in kidney” for “liver”", "format": "functional, organism-based"}, "Rattus norvegicus [8]": {"test_system": "Rattus norvegicus", "assay": "as §4, with “HDL-cholesterol” for “LDL-cholesterol”, “0.688” for “6.54”, “0.288” for “0.918”", "format": "functional"}, "Rattus norvegicus [9]": {"test_system": "Rattus norvegicus", "assay": "as §3, with “reduction in focal necrotic lesions” for “protection against periportal mononuclear inflammatory cell infiltration”, “20” for “10”", "format": "functional, organism-based"}, "Rattus norvegicus [10]": {"test_system": "Rattus norvegicus", "assay": "as §1, with “LC3B” for “TNF alpha”, “kidney” for “liver”, “10” for “20”, “2.47” for “18.28”, “0.356” for “1.31”", "format": "functional"}, "Rattus norvegicus [11]": {"test_system": "Rattus norvegicus", "assay": "as §1, with “TNFalpha” for “TNF alpha”, “kidney” for “liver”, “30” for “20”, “24” for “18.28”, “1.5” for “1.31”", "format": "functional"}, "Rattus norvegicus [12]": {"test_system": "Rattus norvegicus", "assay": "(§6) Antidiabetic activity in high fat diet-STZ induced diabetic Wistar rat model assessed as HOMA-IR level at 20 mg/kg, ip pretreated with high fat diet for 4 weeks followed by 8 hrs fasting after STZ administration and measured 4 weeks after compound treatment (reference value: 21.51 +/- 2.17)", "format": "functional"}, "Rattus norvegicus [13]": {"test_system": "Rattus norvegicus", "assay": "as §6, with “urine albumin to creatinine ratio” for “HOMA-IR level”, “10” for “20”, “87.13” for “21.51”, “9.75 mg/g)” for “2.17)”", "format": "functional"}, "Rattus norvegicus [14]": {"test_system": "Rattus norvegicus", "assay": "Antidiabetic activity in ip dosed high fat diet-STZ induced diabetic Wistar rat model assessed as reduction of ZBP1 mRNA expression in liver pretreated with high fat diet for 4 weeks followed by 8 hrs fasting after STZ administration and measured 4 weeks after compound treatment by RT-qPCR analysis", "format": "functional, organism-based", "conditions": "dose 10-30 mg/kg"}, "Rattus norvegicus [15]": {"test_system": "Rattus norvegicus", "assay": "Antidiabetic activity in high fat diet-STZ induced diabetic Wistar rat model assessed as increase in body weight at 10 to 30 mg/kg, ip pretreated with high fat diet for 4 weeks followed by 8 hrs fasting after STZ administration and measured 4 weeks after compound treatment", "format": "functional, organism-based", "conditions": "dose 10-30 mg/kg"}, "Rattus norvegicus [16]": {"test_system": "Rattus norvegicus", "assay": "as §1, with “LC3B” for “TNF alpha”, “kidney” for “liver”, “2.47” for “18.28”, “0.356” for “1.31”", "format": "functional"}, "Rattus norvegicus [17]": {"test_system": "Rattus norvegicus", "assay": "as §1, with “30” for “20”", "format": "functional"}, "Rattus norvegicus [18]": {"test_system": "Rattus norvegicus", "assay": "(§7) Antidiabetic activity in ip dosed high fat diet-STZ induced diabetic Wistar rat model assessed as reduction of miR-1976 expression in liver pretreated with high fat diet for 4 weeks followed by 8 hrs fasting after STZ administration and measured 4 weeks after compound treatment by RT-qPCR analysis", "format": "functional, organism-based", "conditions": "dose 10-30 mg/kg"}, "Rattus norvegicus [19]": {"test_system": "Rattus norvegicus", "assay": "as §3, with “reduction in epididymal adipocyte” for “protection against periportal mononuclear inflammatory”, “size” for “infiltration”, “adipose tissue” for “liver”, “20 to 30” for “10”", "format": "functional, organism-based", "conditions": "dose 20-30 mg/kg"}, "Rattus norvegicus [20]": {"test_system": "Rattus norvegicus", "assay": "as §6, with “insulin” for “HOMA-IR”, “level in serum” for “level”, “treatment by ELISA” for “treatment”, “16.53” for “21.51”, “1.14 microU/ml)” for “2.17)”", "format": "functional"}, "Rattus norvegicus [21]": {"test_system": "Rattus norvegicus", "assay": "as §3, with “reduction” for “protection against periportal mononuclear inflammatory cell infiltration”, “persistent tubular dilation in kidney” for “liver”, “20” for “10”", "format": "functional, organism-based"}, "Rattus norvegicus [22]": {"test_system": "Rattus norvegicus", "assay": "as §3, with “diffuse hepatocellular microvesicular steatosis” for “periportal mononuclear inflammatory cell infiltration in liver”", "format": "functional, organism-based"}, "Rattus norvegicus [23]": {"test_system": "Rattus norvegicus", "assay": "as §2, with “liver” for “kidney”", "format": "functional, organism-based", "conditions": "dose 10-30 mg/kg"}, "Rattus norvegicus [24]": {"test_system": "Rattus norvegicus", "assay": "as §1, with “LC3B” for “TNF alpha”, “30” for “20”, “0.742” for “18.28”, “0.143” for “1.31”", "format": "functional"}, "Rattus norvegicus [25]": {"test_system": "Rattus norvegicus", "assay": "as §7, with “adipose tissue” for “liver”", "format": "functional, organism-based", "conditions": "dose 10-30 mg/kg"}, "Rattus norvegicus [26]": {"test_system": "Rattus norvegicus", "assay": "as §1, with “LC3B” for “TNF alpha”, “10” for “20”, “0.742” for “18.28”, “0.143” for “1.31”", "format": "functional"}, "Rattus norvegicus [27]": {"test_system": "Rattus norvegicus", "assay": "as §3, with “intact hepatocytes by measuring reduction” for “protection against periportal mononuclear inflammatory cell infiltration”, “persistent fatty changes” for “liver”, “20” for “10”", "format": "functional, organism-based"}, "Rattus norvegicus [28]": {"test_system": "Rattus norvegicus", "assay": "as §3, with “reduction in” for “protection against periportal mononuclear”, “infiltrates” for “cell infiltration”, “kidney” for “liver”, “20” for “10”", "format": "functional, organism-based"}, "Rattus norvegicus [29]": {"test_system": "Rattus norvegicus", "assay": "Antidiabetic activity in high fat diet-STZ induced diabetic Wistar rat model assessed as ALT level at 20 mg/kg, ip pretreated with high fat diet for 4 weeks followed by 8 hrs fasting after STZ administration and measured 4 weeks after compound treatment (reference value: 152.1 +/- 23.64 IU/L)", "format": "functional"}, "Rattus norvegicus [30]": {"test_system": "Rattus norvegicus", "assay": "as §3, with “reduction in” for “protection against periportal mononuclear”, “infiltrates” for “cell infiltration”, “kidney” for “liver”, “30” for “10”", "format": "functional, organism-based"}, "Rattus norvegicus [31]": {"test_system": "Rattus norvegicus", "assay": "as §5, with “DDX58” for “ZBP1”, “adipose tissue” for “kidney”", "format": "functional, organism-based", "conditions": "dose 10-30 mg/kg"}, "Rattus norvegicus [32]": {"test_system": "Rattus norvegicus", "assay": "Antidiabetic activity in ip dosed high fat diet-STZ induced diabetic Wistar rat model assessed as reduction of STING mRNA expression in liver pretreated with high fat diet for 4 weeks followed by 8 hrs fasting after STZ administration and measured 4 weeks after compound treatment by RT-qPCR analysis", "format": "functional, organism-based", "conditions": "dose 10-30 mg/kg"}}, "note": "Activity calls are given as the source filed them. The calls are words filed in the database; no cut-off is given here.", "data": [{"smiles": "O[C@@H]1[C@@H](O)[C@H](OC/C=C/c2ccccc2)O[C@H](CO[C@@H]2OC[C@H](O)[C@H](O)[C@H]2O)[C@H]1O", "values": [{"measurement": "Activity", "setting": "Rattus norvegicus [1]", "result": 8.75, "unit": "%"}, {"measurement": "Activity", "setting": "Rattus norvegicus [2]", "result": "Active"}, {"measurement": "Activity", "setting": "Rattus norvegicus [3]", "result": "inactive"}, {"measurement": "Activity", "setting": "Rattus norvegicus [4]", "result": 1.3, "unit": "mmol/L"}, {"measurement": "Activity", "setting": "Rattus norvegicus [5]", "result": 8.52, "unit": "mmol/L"}, {"measurement": "Activity", "setting": "Rattus norvegicus [6]", "result": "Dose-Dependent Effect"}, {"measurement": "Activity", "setting": "Rattus norvegicus [7]", "result": "inactive"}, {"measurement": "Activity", "setting": "Rattus norvegicus [8]", "result": 1.39, "unit": "mmol/L"}, {"measurement": "Activity", "setting": "Rattus norvegicus [9]", "result": "Active"}, {"measurement": "Activity", "setting": "Rattus norvegicus [10]", "result": 8.6, "unit": "%"}, {"measurement": "Activity", "setting": "Rattus norvegicus [11]", "result": 3.98, "unit": "%"}, {"measurement": "Activity", "setting": "Rattus norvegicus [12]", "result": 2.76}, {"measurement": "Activity", "setting": "Rattus norvegicus [13]", "result": 50.75, "unit": "mg/g"}, {"measurement": "Activity", "setting": "Rattus norvegicus [14]", "result": "Dose-Dependent Effect"}, {"measurement": "Activity", "setting": "Rattus norvegicus [15]", "result": "Active"}, {"measurement": "Activity", "setting": "Rattus norvegicus [16]", "result": 11.23, "unit": "%"}, {"measurement": "Activity", "setting": "Rattus norvegicus [17]", "result": 3.52, "unit": "%"}, {"measurement": "Activity", "setting": "Rattus norvegicus [18]", "result": "Dose-Dependent Effect"}, {"measurement": "Activity", "setting": "Rattus norvegicus [19]", "result": "Active"}, {"measurement": "Activity", "setting": "Rattus norvegicus [20]", "result": 6.4, "unit": "uU/ml"}, {"measurement": "Activity", "setting": "Rattus norvegicus [21]", "result": "Active"}, {"measurement": "Activity", "setting": "Rattus norvegicus [22]", "result": "inactive"}, {"measurement": "Activity", "setting": "Rattus norvegicus [23]", "result": "Active"}, {"measurement": "Activity", "setting": "Rattus norvegicus [24]", "result": 13.3, "unit": "%"}, {"measurement": "Activity", "setting": "Rattus norvegicus [25]", "result": "Dose-Dependent Effect"}, {"measurement": "Activity", "setting": "Rattus norvegicus [26]", "result": 2.22, "unit": "%"}, {"measurement": "Activity", "setting": "Rattus norvegicus [27]", "result": "Active"}, {"measurement": "Activity", "setting": "Rattus norvegicus [28]", "result": "Active"}, {"measurement": "Activity", "setting": "Rattus norvegicus [29]", "result": 42.38, "unit": "IU/L"}, {"measurement": "Activity", "setting": "Rattus norvegicus [30]", "result": "Active"}, {"measurement": "Activity", "setting": "Rattus norvegicus [31]", "result": "Dose-Dependent Effect"}, {"measurement": "Activity", "setting": "Rattus norvegicus [32]", "result": "Dose-Dependent Effect"}]}]}
